Key:
[1] = system: isolierte Kaninchenaortastreifen; assay: Contractile effect on isolated rabbit aorta strips, dose-response compared with PGF2α (method of J.R. Vane); design: species or system Kaninchen; conditions: isolated rabbit aorta strip
Source text: Zum Beispiel wurde die kontrahierende Wirkung von (15R)-12-epi-PGF2ß an einem isolierten Kaninchenaortastreifen mit der des natürlichen PGF2α verglichen. […] Die Wirkung dieser erfindungsgemäßen Verbindung setzt bei etwa 3-10^-6M/lein (vgl. Abb. 1). In dieser Konzentration ist das (15-S)-Epimere des 12 epi-PGF2ßunwirksam. [drawing]
Abb. 1 Kontraktile Wirkung von (15R)-12-epi-PGF2β (x) und PGF2α (.) auf isolierte Kaninchenaortastreifen in Abhängigkeit von der Dosis. (c = Konzentration; K = Kontraktionskraft) (Gemessen nach: J.R. Vane, Br.J. Pharmacol. Chemother. 23, 360-373 (1964)).

[2] = system: Langendorff-Herz; isolierte Aorta - Tracheen- und Fundus-Streifen; Kreislauf von Meerschweinchen und Hund; assay: Battery of further pharmacological tests compared with PGF2α: Langendorff heart (coronary flow, heart rate, inotropy); isolated aorta, trachea and fundus strips; circulation of guinea pig and dog (blood pressure, heart rate); conditions: in all tests of the battery, compared with natural PGF2α
Source text: In mehreren anderen Tests wurden (15R)- und (15S)-12-epi-PGF2ß sowie die beiden analogen erfindungsgemäßen 15-Mithylverbindungen mit dem bekannten PGF2α verßlichen. […] Die 15-Methyl-Derivate der 12-epi-PGF2β zeigen analoge Unterschiede der Wirkungsqualität der jeweiligen 15Rund l5S-Epimeren.

Structure (SMILES)	Wirkungsstärke (kontrahierende Wirkung) im Vergleich zu PGF2α ([1]; dose-response curve runs parallel to that of PGF2α)	minimal effective concentration ([1]; threshold concentration of the contractile effect (Abb. 1), read-out: Konzentration, bei der die kontrahierende Wirkung einsetzt)	Wirkungsqualität [2]	kontrahierende Wirkung ([1]; at the concentration of about 3-10^-6M/l)
CCCCC[C@@H](O)/C=C/[C@H]1[C@@H](C/C=C\CCCC(=O)O)[C@H](O)C[C@H]1O [(15R)-12-epi-PGF2β, 15R-12-epi-PGF2β]	ca. eine Zehnerpotenz niedrigeren Wirkungsstärke	~3 µM	parallel zu den Wirkungen des natürlichen PGF2α	
CCCCC[C@H](O)/C=C/[C@H]1[C@@H](C/C=C\CCCC(=O)O)[C@H](O)C[C@H]1O [(15S)-12-epi-PGF2β, 12-epi-PGF2β]			PGE2-ähnliche Wirkung	unwirksam

Source: patent EP0144459A1, “Prostaglandins, their preparation and pharmaceutical compositions” (Dr. Willmar Schwabe GmbH & Co., priority 1983, dated 1985)
